Data as given in publication PMC9388626, “STUB1 is an intracellular checkpoint for interferon gamma sensing” (Scientific Reports, 2022).

Legend:
B16-F10 cells [1] = assay: Flow cytometry, surface IFNGR1 on CRISPR-edited cells; assay type: cell-based, murine; conditions: B16-F10, 24 h
Method: (§1) Parental, CRISPR-edited or biologic-overexpressed tumour cells were seeded in a cell density of 60,000 (B16-F10), 150,000 (CT26), 100,000 (A375), or 200,000 (A549) per well in 12-well plate filled with 0.8 ml culture media + 10% FBS. After overnight incubation, the culture media were replaced with 1 ml fresh media supplemented with 10% FBS and the designated concentration of the recombinant mouse IFNγ (R&D Systems, #485-MI-100) or recombinant human IFNγ (R&D Systems, #285-IF-100). The cells were stimulated with the cytokine for 24 h before they were harvested by trypsinization for flow cytometry, western blot, or qPCR analysis (6 h treatment).
(§2) Cells were dissociated from the wells with 0.25% trypsin (Gibco, 25200056). After rinsing with 0.5 ml PBS, each sample was stained with the LIVE/DEAD Fixable Aqua dead cell staining solution (Life Technologies, L34957) in 100 µl PBS (1:1000 dilution) for 15 min at 4 °C. After rinsing with 2 × 0.5 ml PBS, each sample was stained with the corresponding primary antibody-dye conjugates diluted in 100 µl Pharmingen stain buffer (BD Biosciences, #554657). After 1 h staining at 4 °C, the cells were rinsed with 2 × 2 ml Pharmingen stain buffer and fixed with 4.21% (w/w) formaldehyde (BD Biosciences, #554655). Cells were analyzed on LSRFortessa X-20 (BD Biosciences) with appropiate fluorescence compensation. The data were analyzed using FlowJo. Cells were gated based on FSC and SSC. Single cells were selected using FSC-A and FSC-H and viable cells were selected using LIVE/DEAD signal. Primary antibodies used were: H-2K^b/H-2D^b (FITC, Biolegend, #114606, 1:50 dilution), HLA-A,B,C (FITC, Biolegend, #311404, 1:100 dilution), mouse IFNGR1 (PE, Invitrogen, #12-1191-82, 1:50 dilution), human IFNGR1 (PE, Miltenyi, #130-125-851, 1:50 dilution), mouse IL1R1 (APC, Biolegend, #113509, 1:20 dilution), mouse IL6R (APC, Biolegend, #115812, 1:20 dilution), mouse IFNAR1 (APC, Biolegend, #127314, 1:20 dilution), and mouse GP130 (PE, Biolegend, #149404, 1:100 dilution).

B16-F10 cells [2] = assay: Flow cytometry, surface MHC-I on CRISPR-edited cells with IFNγ; assay type: cell-based, murine
Method: as §1, with “The cells were stimulated with the cytokine for 24 h before they were harvested by trypsinization for flow cytometry, western blot, or qPCR analysis (6 h treatment).” left out
as §2

IFNγ
Cell surface IFNGR1 with increasing IFNγ (B16-F10 cells [1]): declined with increasing IFNγ concentration | IFNγ concentration needed by parental and control cells for response comparable to Stub1-null cells (B16-F10 cells [2]; B16-F10 (Fig. 1b, e)): at least tenfold higher concentration of IFNγ | MHC-I relative abundance compared to parental (B16-F10 cells [2]; Parental, 0.10 ng ml-1, 24 h): 1.00 | MHC-I relative abundance compared to parental (B16-F10 cells [2]; Parental, 0.10 ng ml-1, 48 h): 1.00 | Surface MHC-I (B16-F10 cells [2]; Stub1-null vs parental and control B16-F10): significantly higher, IFNγ-dependent, MHC-I on cell surface | MHC-I relative abundance compared to parental (B16-F10 cells [2]; clone 1A12 (gStub1 #2), 0.10 ng ml-1, 24 h): 3.60 | MHC-I relative abundance compared to parental (B16-F10 cells [2]; clone 1A12 (gStub1 #2), 0.10 ng ml-1, 48 h): 11.41 | MHC-I relative abundance compared to parental (B16-F10 cells [2]; clone 1B9, 0.10 ng ml-1, 24 h): 1.36 | MHC-I relative abundance compared to parental (B16-F10 cells [2]; clone 1B9, 0.10 ng ml-1, 48 h): 1.43 | MHC-I relative abundance compared to parental (B16-F10 cells [2]; clone 1D8, 0.10 ng ml-1, 24 h): 4.16 | MHC-I relative abundance compared to parental (B16-F10 cells [2]; clone 1D8, 0.10 ng ml-1, 48 h): 12.70 | MHC-I relative abundance compared to parental (B16-F10 cells [2]; clone 1D10 (gStub1 #1), 0.10 ng ml-1, 24 h): 4.42 | MHC-I relative abundance compared to parental (B16-F10 cells [2]; clone 1D10 (gStub1 #1), 0.10 ng ml-1, 48 h): 13.18 | MHC-I relative abundance compared to parental (B16-F10 cells [2]; clone 1E6, 0.10 ng ml-1, 24 h): 9.22 | MHC-I relative abundance compared to parental (B16-F10 cells [2]; clone 1E6, 0.10 ng ml-1, 48 h): 24.23 | MHC-I relative abundance compared to parental (B16-F10 cells [2]; clone 1G6, 0.10 ng ml-1, 24 h): 4.19 | MHC-I relative abundance compared to parental (B16-F10 cells [2]; clone 1G6, 0.10 ng ml-1, 48 h): 12.85 | MHC-I relative abundance compared to parental (B16-F10 cells [2]; clone 1G10, 0.10 ng ml-1, 24 h): 1.08 | MHC-I relative abundance compared to parental (B16-F10 cells [2]; clone 1G10, 0.10 ng ml-1, 48 h): 0.94 | MHC-I relative abundance compared to parental (B16-F10 cells [2]; clone 1H7, 0.10 ng ml-1, 24 h): 2.27 | MHC-I relative abundance compared to parental (B16-F10 cells [2]; clone 1H7, 0.10 ng ml-1, 48 h): 5.53 | MHC-I relative abundance compared to parental (B16-F10 cells [2]; clone 2B11, 0.10 ng ml-1, 24 h): 2.67 | MHC-I relative abundance compared to parental (B16-F10 cells [2]; clone 2B11, 0.10 ng ml-1, 48 h): 9.24 | MHC-I relative abundance compared to parental (B16-F10 cells [2]; clone 2E8 (gControl), 0.10 ng ml-1, 24 h): 0.75 | MHC-I relative abundance compared to parental (B16-F10 cells [2]; clone 2E8 (gControl), 0.10 ng ml-1, 48 h): 0.77 | MHC-I relative abundance compared to parental (B16-F10 cells [2]; clone 2E9, 0.10 ng ml-1, 24 h): 4.10 | MHC-I relative abundance compared to parental (B16-F10 cells [2]; clone 2E9, 0.10 ng ml-1, 48 h): 11.55 | MHC-I relative abundance compared to parental (B16-F10 cells [2]; clone 2F7, 0.10 ng ml-1, 24 h): 1.00 | MHC-I relative abundance compared to parental (B16-F10 cells [2]; clone 2F7, 0.10 ng ml-1, 48 h): 1.01 | MHC-I relative abundance compared to parental (B16-F10 cells [2]; clone 2H3, 0.10 ng ml-1, 24 h): 3.56 | MHC-I relative abundance compared to parental (B16-F10 cells [2]; clone 2H3, 0.10 ng ml-1, 48 h): 12.42
